Test results published in patent US8106218B2, “Pharmaceutical compounds” (Neuroscienze Pharmaness S.C. A R.L., priority 2004, dated 2012).
Where two headings read alike, the source gives them in different places.

Key:
[1] = target: T1, cannabinoidergic CB2 receptors (Rattus norvegicus, UniProt Q9QZN9); assay: Radioreceptorial binding, [3H]-CP-55,940 competition, rat spleen membranes; details: rat spleen membranes, 1 nM [3H]-CP55,940; read-out: CB2 (spleen) Ki
T1 construct: the brain in toto (cerebellum excluded) and the spleen were rapidly dissected and maintained in ice; from tissue; host or cells: rat spleen, membrane preparation
T1 sequence (Q9QZN9 1-360): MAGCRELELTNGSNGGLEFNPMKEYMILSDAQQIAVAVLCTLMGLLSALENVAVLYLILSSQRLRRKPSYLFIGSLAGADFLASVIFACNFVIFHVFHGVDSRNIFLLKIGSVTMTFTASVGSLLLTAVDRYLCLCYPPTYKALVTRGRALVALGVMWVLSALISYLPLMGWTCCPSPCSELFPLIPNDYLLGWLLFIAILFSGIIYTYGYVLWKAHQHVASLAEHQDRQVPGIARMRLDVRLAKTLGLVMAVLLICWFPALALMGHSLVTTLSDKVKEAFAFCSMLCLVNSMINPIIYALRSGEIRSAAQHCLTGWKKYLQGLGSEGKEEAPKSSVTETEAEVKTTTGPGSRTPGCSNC
Procedure: (§1) The affinity of the synthesized compounds towards the cannabinoidergic CB1 and CB2 receptors was evaluated in vitro through radioreceptorial binding studies by utilizing the following method.
(§2) The receptorial binding technique allows indeed to establish if and with what affinity and specificity a determined compound binds itself to a particular receptor. To evaluate the possible affinity of a determined compound towards a particular receptor it is necessary to make to compete (in a particular preparation of the tissue in which those determined receptors are present) the compound to be tested with another compound whose affinity is known and whose molecule was rendered radioactive. […] The reading of the radioactivity present in the receptor-compound complex allows furthermore to calculate with extreme precision the amount of compound bound to the receptor. […] By repeating the same experimental scheme it is possible to evaluate the affinity of the compound towards other kinds of receptors and establish then the specificity degree.
(§3) Food and water were available ad libitum.
(§4) The animals were sacrificed by cervical dislocation, the brain in toto (cerebellum excluded) and the spleen were rapidly dissected and maintained in ice.
(§5) The tissue was homogenized in 15 volumes (weight/volume) of TME buffer (50 mM Tris, 1 mM EDTA e 3 mM MgCl2, pH 7.4) by an Ultra-Turrax and centrifuged for 10 minutes at 1086×g in a centrifuge cooled at 4° C. The resulting supernatant was centrifuged at 45,000×g for 30 min at 4° C. by using a Beckman SW41 rotor and the final pellet was resuspended in 50 volumes of TME.
(§6) The obtained membranes (50-80 μg of proteins) were incubated in the presence of 1 nM di[^3H]-CP55,940 for 1 h at 30° C. in a final volume of 0.5 ml of TME buffer containing 5 mg/ml of bovine serum albumin (BSA). The non specific binding was measured in the presence of CP55,940 at the 1 μM concentration.
(§7) All the experiments were carried out in polypropylene test tubes pretreated with Sigma-Cote (Sigma Chemical Co. Ltd., Poole, UK) to reduce the non specific binding.
(§8) For the building of the competitive inhibition binding curves eight different concentrations of each compound were used.
(§9) Incubation was interrupted by addition of TME buffer (at 4° C.) containing 5 mg/ml of BSA and filtration under vacuum through Whatman GFC filters pretreated with 0.5% of polyethylamine (PEI) and by using a filtering apparatus (Brandell, Gaithersburg, Md., USA). Filters were washed 3 times with 5 ml of Tris HCl buffer (pH 7.4, 4° C.) containing 1 mg/ml of BSA and singly placed in plastic vials containing 4 ml of scintillating liquid (Ultima Gold MV, Packard).
(§10) The radioactivity present in the filters was measured by a scintillator spectrophotometer (Tricarb 2100, Packard, Meridien, USA).
(§11) The protein determination was carried out by the Bradford method by using the protocol and the reactants supplied by Bio-Rad (Milano, Italia).
(§12) The affinity of the compounds towards the CB1 and CB2 receptors was expressed in Ki terms.

[2] = target: T2, cannabinoidergic CB1 receptors (Rattus norvegicus, UniProt P20272); assay: Radioreceptorial binding, [3H]-CP-55,940 competition, rat brain membranes; details: rat brain membranes, 1 nM [3H]-CP55,940; read-out: CB1 (brain) Ki
T2 construct: the brain in toto (cerebellum excluded) and the spleen were rapidly dissected and maintained in ice; from tissue; host or cells: rat brain (cerebellum excluded), membrane preparation
T2 sequence (P20272 whole entry): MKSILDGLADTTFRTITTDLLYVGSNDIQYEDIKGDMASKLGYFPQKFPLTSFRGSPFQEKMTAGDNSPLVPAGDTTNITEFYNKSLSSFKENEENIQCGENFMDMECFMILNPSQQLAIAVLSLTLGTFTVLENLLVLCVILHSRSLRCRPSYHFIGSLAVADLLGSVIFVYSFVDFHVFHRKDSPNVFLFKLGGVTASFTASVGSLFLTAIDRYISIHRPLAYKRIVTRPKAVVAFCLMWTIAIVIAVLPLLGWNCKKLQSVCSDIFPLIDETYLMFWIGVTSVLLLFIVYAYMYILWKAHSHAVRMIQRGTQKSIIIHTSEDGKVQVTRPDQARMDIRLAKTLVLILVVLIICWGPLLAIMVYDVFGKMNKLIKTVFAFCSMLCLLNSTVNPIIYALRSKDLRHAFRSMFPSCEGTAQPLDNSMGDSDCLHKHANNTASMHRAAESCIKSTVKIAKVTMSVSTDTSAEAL
Procedure: as §1, §2, §3, §4, §5, §6, §7, §8, §9, §10, §11, §12

rat [3] = details: for passage of the hemato-encephalic barrier: concluded from the hypothermia tests; for effect on body temperature (hypothermia) of the compound alone, in words: i.p., up to 120 min
Procedure: The rectal temperature in the rat was determined by an electronic thermometer inserted at a 2 mm depth. The measurements were carried out on rats acclimated for one hour. […]
Each test was repeated on ten animals; the reported results are the average of the results obtained with the ten animals.

rat [4] = assay: Hypothermia test in vivo, antagonism of the hypothermia induced by WIN 55,212-2; details: for antagonist activity towards the hypothermia induced by WIN 55,212-2, in words: compound i.p. 30 min before WIN 55,212-2 (3 mg/kg)
Procedure: The rectal temperature in the rat was determined by an electronic thermometer inserted at a 2 mm depth. The measurements were carried out on rats acclimated for one hour. The rectal temperature was determined before and after (from 30 to 120 minutes) the i.p. administration of the compound to be tested.

rat intestinal motility [5] = assay: Intestinal motility, Upper Gut Transit Test, compound alone; format: in vivo; details: control 50%
Procedure: (§13) To evaluate the activity in vivo of the compounds (I) object of the present invention, functional tests were carried out directed to the evaluation of the effect of said compounds on the rat intestinal motility. It was indeed shown the involvement of the cannabinoidergic CB1 receptors in the intestinal motility regulation in rat (R. G. Pertwee et al; Br. J. Pharmacol.; 1996, 118, 2199-2205). In particular, the CB1 receptor agonists slacken the gastrointestinal motility; antagonist compounds of the same receptors have instead a prokinetic effect on the gastrointestinal transit (G. Colombo et al.; Eur. J. Pharmacol.; 1998, 344, 67-69; M. A. Casu et al.; Eur. J. Pharmacol.; 2003, 459, 97-105).
(§14) The evaluation of the constipating or prokinetic effect of the compounds was carried out by the Upper Gut Transit Test method on the basis of the procedure defined and ratified by Y. Nagakura et al.; Eur. J. Pharmacol.; 1996, 311, 67-72. The method, which allows to measure the motility of the stomach and of the first intestine tract (small or little intestine), requires: • the administration of the compound to be tested by i.p. route; • the administration of carmine red (marker not directly absorbable from the stomach) by intragastric route through a metal probe, after 20 minutes from the administration of the compound to be tested; • the rat sacrifice by cervical dislocation after a pre-fixed time (30 minutes) starting from the administration time; • the intestine explant from pylorus to the ileo-cecal valve; • the determination of the intestinal part crossed by the marker; • the data processing to determine the percentage of crossed part with respect to the total length of the small intestine.
With respect to the control (physiological solution or carrier wherein the compounds to be tested were solubilized or dispersed), the administration of CB1 agonist compounds implies an intestinal transit percentage reduction; an opposite effect is noticed in case of antagonist compounds. The latter are therefore capable to cancel the constipating effect of CB1 agonist compounds.
Each test was repeated on ten animals; the results reported in the Examples are the average of the results obtained with ten animals.

rat intestinal motility [6] = assay: Intestinal motility, Upper Gut Transit Test, antagonism of the constipating action of WIN 55,212-2; format: in vivo; details: compound 0.1 mg/kg before WIN 55,212-2 0.5 mg/kg, WIN alone 25%
Procedure: as §13, §14
With respect to the control (physiological solution or carrier wherein the compounds to be tested were solubilized or dispersed), the administration of CB1 agonist compounds implies an intestinal transit percentage reduction; an opposite effect is noticed in case of antagonist compounds. The latter are therefore capable to cancel the constipating effect of CB1 agonist compounds. […]

O=C(NN1CCCC1)c1nn(-c2ccc(Cl)cc2Cl)c2c1CCc1sc(Br)cc1-2 [Example 3.7, N-pyrrolidinyl-7-bromo-1-(2′,4′-dichlorophenyl)-4,5-dihydro-1H-thieno[2,3-g]indazol-3-carboxamide]
Ki [1]: 195 ± 27 nM | melting point: 227 °C | Ki [2]: 126 ± 5 nM

O=C(NN1CCCCCC1)c1nn(-c2ccc(Cl)cc2Cl)c2c1CCc1sc(Br)cc1-2 [Example 3.8, N-homopiperidinyl-7-bromo-1-(2′,4′-dichlorophenyl)-4,5-dihydro-1H-thieno[2,3-g]indazol-3-carboxamide]
Ki [1]: 60 ± 1 nM | melting point: 176 °C | Ki [2]: 9.6 ± 1.7 nM

Cc1cc2c(s1)CCc1c(C(=O)NN3CCCCC3)nn(-c3ccc(Cl)cc3Cl)c1-2 [Example 3.9, N-piperidinyl-7-methyl-1-(2′,4′-dichlorophenyl)-4,5-dihydro-1H-thieno[2,3-g]indazol-3-carboxamide]
passage of the hemato-encephalic barrier (rat [3]): unable to pass the hemato-encephalic barrier | Ki [1]: 55.1 ± 6 nM | melting point: 216 °C | Ki [2]: 7.88 ± 0.5 nM

N-piperidino-5-(4-chlorophenyl)-1-(2,4-dichlorophenyl)-4-methylpyrazol-3-carboxyamide [SR141716A, reference compound]
Body temperature (rat [4]; WIN 55,212-2 (3 mg/kg) + compound (0.1 mg/kg), 30 min): 35.3 °C | Body temperature (rat [4]; WIN 55,212-2 (3 mg/kg) + compound (0.1 mg/kg), 60 min): 36.9 °C | Body temperature (rat [4]; WIN 55,212-2 (3 mg/kg) + compound (0.1 mg/kg), 90 min): 37.5 °C | Body temperature (rat [4]; WIN 55,212-2 (3 mg/kg) + compound (0.5 mg/kg), 30 min): 37.0 °C | Body temperature (rat [4]; WIN 55,212-2 (3 mg/kg) + compound (0.5 mg/kg), 60 min): 37.8 °C | Body temperature (rat [4]; WIN 55,212-2 (3 mg/kg) + compound (0.5 mg/kg), 90 min): 37.9 °C | antagonist activity towards the hypothermia induced by WIN 55,212-2, in words (rat [4]): able to antagonize the effect of WIN 55,212-2 | passage of the hemato-encephalic barrier (rat [3]): capable to pass the hemato-encephalic barrier | effect on body temperature (hypothermia) of the compound alone, in words (rat [3]): has not implied any variation of the body temperature | intestinal portion run by the marker with respect to the total intestine length (rat intestinal motility [5]; compound 2.5 mg/kg i.p.): 75% | intestinal portion run by the marker with respect to the total intestine length (rat intestinal motility [6]): 50%

O=C(NN1CCCCC1)c1nn(-c2ccc(Cl)cc2Cl)c2c1CCc1sc(Cl)cc1-2 [Example 3.1, N-piperidinyl-7-chloro-1-(2′,4′-dichlorophenyl)-4,5-dihydro-1H-thieno[2,3-g]indazol-3-carboxamide]
Ki [1]: 67.4 ± 6 nM | Ki [2]: 44.3 ± 0.5 nM

O=C(NN1CCCCC1)c1nn(-c2ccc(Cl)cc2Cl)c2c1CCc1sc(Br)cc1-2 [Example 3.2, N-piperidinyl-7-bromo-1-(2′,4′-dichlorophenyl)-4,5-dihydro-1H-thieno[2,3-g]indazol-3-carboxamide]
Body temperature (rat [4]; WIN 55,212-2 (3 mg/kg) + compound (0.1-30 mg/kg), 0 min): 38.0 °C | Body temperature (rat [4]; WIN 55,212-2 (3 mg/kg) + compound (0.1-30 mg/kg), 15 min): 38.0 °C | Body temperature (rat [4]; WIN 55,212-2 (3 mg/kg) + compound (0.1-30 mg/kg), 30 min): 34.0 °C | Body temperature (rat [4]; WIN 55,212-2 (3 mg/kg) + compound (0.1-30 mg/kg), 60 min): 34.5 °C | Body temperature (rat [4]; WIN 55,212-2 (3 mg/kg) + compound (0.1-30 mg/kg), 90 min): 35.8 °C | Body temperature (rat [4]; WIN 55,212-2 (3 mg/kg) + compound (0.1-30 mg/kg), 120 min): 36.8 °C | antagonist activity towards the hypothermia induced by WIN 55,212-2, in words (rat [4]): no variation of the body temperature with respect to the treatment with the only WIN 55,212-2 | Body temperature (rat [3]; compound alone 0.1-30 mg/kg i.p., 0 min): 38.0 °C | Body temperature (rat [3]; compound alone 0.1-30 mg/kg i.p., 15 min): 37.9 °C | Body temperature (rat [3]; compound alone 0.1-30 mg/kg i.p., 30 min): 38.0 °C | Body temperature (rat [3]; compound alone 0.1-30 mg/kg i.p., 60 min): 38.2 °C | Body temperature (rat [3]; compound alone 0.1-30 mg/kg i.p., 90 min): 38.1 °C | Body temperature (rat [3]; compound alone 0.1-30 mg/kg i.p., 120 min): 37.9 °C | passage of the hemato-encephalic barrier (rat [3]): not able to pass the hemato-encephalic barrier | effect on body temperature (hypothermia) of the compound alone, in words (rat [3]): In none of the examined cases there was a reduction of the body temperature | Ki [1]: 36.8 ± 5 nM | Ki [2]: 4.47 ± 0.14 nM

Cc1cc2c(s1)CCc1c(C(=O)NN3CCCCCC3)nn(-c3ccc(Cl)cc3Cl)c1-2 [Example 3.11, N-homopiperidinyl-7-methyl-1-(2′,4′-dichlorophenyl)-4,5-dihydro-1H-thieno[2,3-g]indazol-3-carboxamide]
Ki [1]: 57.1 ± 5 nM | melting point: 229 °C | Ki [2]: 57 ± 6 nM

Cc1c(C(=O)c2cccc3ccccc23)c2cccc3c2n1[C@H](CN1CCOCC1)CO3 [WIN 55,212-2, reference compound]
Body temperature (rat [3]; WIN 55,212-2 3 mg/kg alone, 0 min from administration): 37.9 °C | Body temperature (rat [3]; WIN 55,212-2 3 mg/kg alone, 15 min): 35.6 °C | Body temperature (rat [3]; WIN 55,212-2 3 mg/kg alone, 30 min): 33.8 °C | Body temperature (rat [3]; WIN 55,212-2 3 mg/kg alone, 60 min): 34.5 °C | Body temperature (rat [3]; WIN 55,212-2 3 mg/kg alone, 90 min): 35.8 °C | Body temperature (rat [3]; WIN 55,212-2 3 mg/kg alone, 120 min): 36.8 °C | intestinal portion run by the marker with respect to the total intestine length (rat intestinal motility [5]; WIN 55,212-2 0.5 mg/kg alone): 25%
